Data on 19 compounds can be found in ChEMBL document CHEMBL1955715 (Bioorg Med Chem Lett, 2012).

Calls of active or inactive are those of the source. The calls are words filed in the database; no cut-off is given here. Some results are limits rather than exact numbers.

In series [1] the test system is Rattus norvegicus. The series is described as follows: Wake promoting activity in EEG/EMG Sprague-Dawley rat model assessed as total time awake at 100 mg/kg, ip measured up to 3 hrs (reference value: 65 +/- 9 mins). Conditions: route intraperitoneal.
Series [2] deals with Plasma. In words: Plasma concentration in human. It is filed as ADME, cell-free.
Series [3] is described as follows: Solubility of the compound in water at pH 7.4. It is filed as physicochemical.
Series [4] can be described thus: Metabolic stability in human liver S9 fraction assessed as compound remaining after 2 hrs. It is filed as ADME, subcellular. Conditions: read-out: Stability.
Series [5] deals with CYP3A4 (Homo sapiens, UniProt P08684). The series is described as follows: Inhibition of CYP3A4 at 10 uM. Type of series: ADME.
Series [6] deals with CYP2D6 (Homo sapiens, UniProt P10635). In words: Inhibition of CYP2D6 at 10 uM. It is filed as ADME.
Series [7] addresses Cytochrome P450 2C19 (Homo sapiens, UniProt P33261). The series is described as follows: Inhibition of CYP2C19. Type of series: ADME.
For series [8], the system named is Salmonella typhimurium. In words: Mutagenic activity in Salmonella Typhimurium by Mini-Ames test. Type of series: toxicity, organism-based. Conditions: salmonella enterica subsp. enterica serovar typhimurium.
For series [9], the target named is T1, Sodium-dependent dopamine transporter (Rattus norvegicus, UniProt P23977). The series is described as follows: Inhibition of rat DAT.
Series [10] concerns the target T1, Sodium-dependent dopamine transporter. The series is described as follows: Inhibition of rat DAT-mediated dopamine reuptake.
Series [11] addresses Transporter (Rattus norvegicus, UniProt Q63380). The series is described as follows: Inhibition of rat NET-mediated norepinephrine reuptake.
For series [12], the target named is Sodium-dependent serotonin transporter (Rattus norvegicus, UniProt P31652). The series is described as follows: Inhibition of rat SERT-mediated serotonin reuptake.
The target in series [13] is Voltage-gated inwardly rectifying potassium channel KCNH2 (Homo sapiens, UniProt Q12809). The series is described as follows: Inhibition of human ERG at 10 uM.
The subject of series [14] is Rattus norvegicus. The series is described as follows: Wake promoting activity in po dosed EEG/EMG Sprague-Dawley rat model assessed as slow wave sleep and rapid eye movement sleep. It is filed as functional, organism-based.

Chain of CYP3A4 (P08684 whole entry): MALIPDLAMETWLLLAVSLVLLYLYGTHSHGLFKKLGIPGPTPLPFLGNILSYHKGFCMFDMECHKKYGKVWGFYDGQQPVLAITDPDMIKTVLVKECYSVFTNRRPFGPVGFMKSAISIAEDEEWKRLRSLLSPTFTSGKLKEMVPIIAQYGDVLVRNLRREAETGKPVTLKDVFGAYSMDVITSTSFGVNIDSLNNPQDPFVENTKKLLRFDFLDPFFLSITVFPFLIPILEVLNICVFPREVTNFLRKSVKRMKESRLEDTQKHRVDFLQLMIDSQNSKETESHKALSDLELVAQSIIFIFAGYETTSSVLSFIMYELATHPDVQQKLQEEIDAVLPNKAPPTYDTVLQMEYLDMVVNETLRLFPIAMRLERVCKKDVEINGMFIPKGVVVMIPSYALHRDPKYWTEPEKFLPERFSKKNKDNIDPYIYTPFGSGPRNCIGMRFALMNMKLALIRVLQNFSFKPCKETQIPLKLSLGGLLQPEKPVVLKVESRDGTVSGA
T1 sequence (P23977 whole entry): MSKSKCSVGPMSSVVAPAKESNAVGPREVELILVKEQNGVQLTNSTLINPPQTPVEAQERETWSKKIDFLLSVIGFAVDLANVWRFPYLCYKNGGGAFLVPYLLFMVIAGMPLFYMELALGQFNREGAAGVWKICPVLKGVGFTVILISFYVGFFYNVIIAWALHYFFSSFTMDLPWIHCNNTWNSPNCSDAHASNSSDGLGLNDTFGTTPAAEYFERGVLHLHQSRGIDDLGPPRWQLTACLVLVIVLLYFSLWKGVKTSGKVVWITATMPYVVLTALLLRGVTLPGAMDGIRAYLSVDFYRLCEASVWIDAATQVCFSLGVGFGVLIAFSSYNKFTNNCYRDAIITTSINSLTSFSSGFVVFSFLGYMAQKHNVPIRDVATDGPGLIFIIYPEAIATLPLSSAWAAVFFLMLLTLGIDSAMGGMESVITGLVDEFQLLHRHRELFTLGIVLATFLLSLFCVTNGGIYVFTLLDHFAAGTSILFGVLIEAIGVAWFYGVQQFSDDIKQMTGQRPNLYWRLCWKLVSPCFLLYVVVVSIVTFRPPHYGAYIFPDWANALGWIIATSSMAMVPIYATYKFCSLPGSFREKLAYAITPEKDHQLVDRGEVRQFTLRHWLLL
Chain of CYP2D6 (P10635 whole entry): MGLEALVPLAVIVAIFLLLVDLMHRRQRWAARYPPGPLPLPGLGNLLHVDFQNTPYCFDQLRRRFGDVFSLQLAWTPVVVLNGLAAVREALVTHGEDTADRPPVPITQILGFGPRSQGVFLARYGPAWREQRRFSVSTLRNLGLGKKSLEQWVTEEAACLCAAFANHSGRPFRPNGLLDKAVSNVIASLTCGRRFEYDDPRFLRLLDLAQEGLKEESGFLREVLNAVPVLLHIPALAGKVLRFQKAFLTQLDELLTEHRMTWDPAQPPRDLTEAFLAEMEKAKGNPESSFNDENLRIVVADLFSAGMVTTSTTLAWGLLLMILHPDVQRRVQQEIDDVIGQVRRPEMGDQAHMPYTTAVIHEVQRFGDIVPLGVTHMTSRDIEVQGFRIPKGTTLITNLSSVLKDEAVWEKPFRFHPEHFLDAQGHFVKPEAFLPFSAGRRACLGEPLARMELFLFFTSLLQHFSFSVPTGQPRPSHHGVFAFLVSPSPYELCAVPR
Chain of Cytochrome P450 2C19 (P33261 whole entry): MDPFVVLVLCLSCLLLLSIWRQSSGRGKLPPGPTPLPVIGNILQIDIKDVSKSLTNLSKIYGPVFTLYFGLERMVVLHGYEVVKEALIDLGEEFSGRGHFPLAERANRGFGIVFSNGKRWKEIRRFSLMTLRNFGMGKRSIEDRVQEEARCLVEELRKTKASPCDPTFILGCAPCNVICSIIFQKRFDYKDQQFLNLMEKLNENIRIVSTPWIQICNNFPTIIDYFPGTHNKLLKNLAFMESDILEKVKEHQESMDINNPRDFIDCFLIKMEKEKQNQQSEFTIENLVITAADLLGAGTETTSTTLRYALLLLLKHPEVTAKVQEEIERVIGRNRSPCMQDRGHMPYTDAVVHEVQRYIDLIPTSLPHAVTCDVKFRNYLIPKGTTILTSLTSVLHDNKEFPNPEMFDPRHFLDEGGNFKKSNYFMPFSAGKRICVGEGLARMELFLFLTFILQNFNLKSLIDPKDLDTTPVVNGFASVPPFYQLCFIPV
Chain of Sodium-dependent serotonin transporter (P31652 whole entry): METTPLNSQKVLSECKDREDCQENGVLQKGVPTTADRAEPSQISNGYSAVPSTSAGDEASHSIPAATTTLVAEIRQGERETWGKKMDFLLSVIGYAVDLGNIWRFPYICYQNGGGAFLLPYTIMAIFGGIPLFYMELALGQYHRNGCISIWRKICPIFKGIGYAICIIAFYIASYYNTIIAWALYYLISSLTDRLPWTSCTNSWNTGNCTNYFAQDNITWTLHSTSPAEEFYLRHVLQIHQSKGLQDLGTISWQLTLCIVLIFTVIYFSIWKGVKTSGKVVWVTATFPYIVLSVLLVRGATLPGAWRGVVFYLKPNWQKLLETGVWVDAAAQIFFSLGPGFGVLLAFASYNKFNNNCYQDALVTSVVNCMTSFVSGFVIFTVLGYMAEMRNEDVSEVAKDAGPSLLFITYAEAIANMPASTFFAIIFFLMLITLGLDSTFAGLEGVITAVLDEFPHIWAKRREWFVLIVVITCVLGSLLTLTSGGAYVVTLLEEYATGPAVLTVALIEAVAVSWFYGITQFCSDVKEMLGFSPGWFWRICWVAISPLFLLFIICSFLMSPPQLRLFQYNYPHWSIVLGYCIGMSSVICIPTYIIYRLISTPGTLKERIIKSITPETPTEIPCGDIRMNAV
Chain of Transporter (Q63380 whole entry): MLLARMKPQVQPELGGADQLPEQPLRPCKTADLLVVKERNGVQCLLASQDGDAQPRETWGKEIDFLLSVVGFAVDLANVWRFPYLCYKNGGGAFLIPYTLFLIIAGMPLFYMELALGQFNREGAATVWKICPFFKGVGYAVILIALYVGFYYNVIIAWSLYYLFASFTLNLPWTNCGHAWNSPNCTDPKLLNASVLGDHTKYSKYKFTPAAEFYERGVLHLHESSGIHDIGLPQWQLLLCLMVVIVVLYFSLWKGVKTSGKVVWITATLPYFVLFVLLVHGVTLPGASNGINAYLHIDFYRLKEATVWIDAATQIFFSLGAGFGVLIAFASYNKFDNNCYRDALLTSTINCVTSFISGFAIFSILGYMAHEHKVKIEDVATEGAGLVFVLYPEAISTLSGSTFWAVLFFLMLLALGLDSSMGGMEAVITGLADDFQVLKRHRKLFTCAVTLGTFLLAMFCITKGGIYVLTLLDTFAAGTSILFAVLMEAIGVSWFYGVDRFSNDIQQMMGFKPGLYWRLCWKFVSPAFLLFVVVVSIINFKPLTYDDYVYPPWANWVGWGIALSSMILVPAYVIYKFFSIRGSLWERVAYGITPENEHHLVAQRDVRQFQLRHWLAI
Chain of Voltage-gated inwardly rectifying potassium channel KCNH2 (Q12809 whole entry): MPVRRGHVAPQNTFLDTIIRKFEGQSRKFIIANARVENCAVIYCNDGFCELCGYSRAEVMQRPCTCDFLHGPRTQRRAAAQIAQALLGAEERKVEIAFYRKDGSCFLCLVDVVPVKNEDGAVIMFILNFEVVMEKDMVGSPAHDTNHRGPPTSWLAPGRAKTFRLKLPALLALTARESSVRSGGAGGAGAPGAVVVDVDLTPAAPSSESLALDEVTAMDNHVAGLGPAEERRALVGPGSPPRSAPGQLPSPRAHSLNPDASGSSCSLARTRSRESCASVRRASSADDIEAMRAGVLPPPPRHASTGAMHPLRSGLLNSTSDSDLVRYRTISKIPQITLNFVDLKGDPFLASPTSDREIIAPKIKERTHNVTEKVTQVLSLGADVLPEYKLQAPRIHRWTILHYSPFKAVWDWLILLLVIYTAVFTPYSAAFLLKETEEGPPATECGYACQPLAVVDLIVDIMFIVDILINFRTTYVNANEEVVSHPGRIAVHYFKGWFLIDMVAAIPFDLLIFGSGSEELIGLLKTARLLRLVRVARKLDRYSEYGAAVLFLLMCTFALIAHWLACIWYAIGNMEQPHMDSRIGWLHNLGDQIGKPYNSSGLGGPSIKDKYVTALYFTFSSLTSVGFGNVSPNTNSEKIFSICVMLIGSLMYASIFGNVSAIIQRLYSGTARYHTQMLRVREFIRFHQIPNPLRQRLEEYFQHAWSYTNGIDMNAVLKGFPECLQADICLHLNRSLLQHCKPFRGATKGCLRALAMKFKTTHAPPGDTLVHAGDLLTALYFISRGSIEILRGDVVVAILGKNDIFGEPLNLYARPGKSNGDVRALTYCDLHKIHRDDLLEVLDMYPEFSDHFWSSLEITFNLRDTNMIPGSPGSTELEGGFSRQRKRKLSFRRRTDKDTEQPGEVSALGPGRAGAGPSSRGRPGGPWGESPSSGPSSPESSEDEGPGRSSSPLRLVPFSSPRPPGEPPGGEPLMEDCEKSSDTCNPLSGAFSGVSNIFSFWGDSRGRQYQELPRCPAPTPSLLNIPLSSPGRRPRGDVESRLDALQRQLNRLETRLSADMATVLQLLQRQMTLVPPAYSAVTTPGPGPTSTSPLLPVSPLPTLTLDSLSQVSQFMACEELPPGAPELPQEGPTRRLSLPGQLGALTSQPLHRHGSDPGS

For the compound `NC(=O)C[S+]([O-])Cc1ccccc1-c1ccccc1F` (stereo not drawn), in [1], the Time amounted to 64 min.

`N#Cc1cccc(-c2ccccc2C[S+]([O-])CC(N)=O)c1` (stereo not drawn): the Time in series [1] was 99 min.

For the compound `CC(=O)c1ccc(-c2ccccc2C[S+]([O-])CC(N)=O)cc1` (stereo not drawn), the Time in series [1] stood at 77 min.

For `COc1ccccc1-c1ccccc1C[S+]([O-])CC(N)=O` (stereo not drawn), the Time in series [1] is 86 min.

In the case of `NC(=O)C[S+]([O-])C(c1ccccc1)c1ccccc1` (stereo not drawn) [MODAFINIL], in [2], the concentration is more than 30 µM. The solubility in [3] is more than 100 µg/mL. In addition, the remaining at 2 h in series [4] amounted to 77%. The inhibition at 10 µM in series [5] and in series [6] was less than 10% throughout. The IC50 in [7] was 11 µM. Further, in series [8], the Activity entry is given as “Non-toxic”. Besides, the Time in [1] worked out at 117 min.

Consider `NC(=O)C[S+]([O-])Cc1ccccc1-c1ccccc1` (stereo not drawn), for which, in series [1], the Time came to 119 min.

Take `NC(=O)C[S+]([O-])Cc1ccccc1-c1ccc(F)cc1` (stereo not drawn): in series [1], the Time worked out at 147 min.

For the compound `NC(=O)C[S+]([O-])Cc1cccc(-c2ccc(Cl)cc2)c1` (stereo not drawn), the Time in series [1] stood at 96 min.

As for `NC(=O)C[S+]([O-])Cc1ccccc1-c1ccccc1Cl` (stereo not drawn), the Time in series [1] was 49 min.

As for `NC(=O)C[S+]([O-])Cc1ccccc1-c1cccc(Cl)c1` (stereo not drawn), in [1], the Time is on record as 106 min.

For `Cc1ccc(-c2ccccc2C[S+]([O-])CC(N)=O)cc1` (stereo not drawn), in series [1], the Time is 146 min.

`NC(=O)C[S+]([O-])Cc1ccccc1-c1ccc(Br)cc1` (stereo not drawn): the Time in [1] worked out at 174 min.

Regarding `NC(=O)C[S+]([O-])Cc1ccc(-c2ccc(Cl)cc2)cc1` (stereo not drawn), the Time in [1] is listed as 92 min.

As for `NC(=O)C[S+]([O-])Cc1ccccc1-c1cccc(C(N)=O)c1` (stereo not drawn), the Time in series [1] was determined as 62 min.

With `NC(=O)C[S+]([O-])Cc1ccccc1-c1ccc(Cl)cc1` (racemic), the solubility in series [3] was more than 100 µg/mL. Further, the remaining at 2 h in series [4] came out at 94%. Besides, the IC50 is 600 nM in series [9]; 830 nM in series [10]; 10 µM in [11]; more than 300 µM in series [12]; 19 µM in [7]. The inhibition at 10 µM in series [5] and in [6] was less than 10% throughout. The Activity entry in series [8] is reported as “Non-toxic”. Besides, the “inhibition (INH)” value in series [13] was “Not Active”. Moreover, the outcome in series [14] was Active. Moreover, the Time in series [1] was determined as 176 min.

With `NC(=O)C[S+]([O-])Cc1ccccc1-c1ccc(OC(F)(F)F)cc1` (stereo not drawn), in series [1], the Time worked out at 108 min.

With `N#Cc1ccc(-c2ccccc2C[S+]([O-])CC(N)=O)cc1` (stereo not drawn), the Time in series [1] was 65 min.

With `Cc1ccccc1-c1cccc(C[S+]([O-])CC(N)=O)c1` (stereo not drawn), the Time in [1] was 117 min.

For `NC(=O)C[S+]([O-])Cc1ccc(-c2ccccc2)cc1` (stereo not drawn), the Time in series [1] is recorded as 100 min.
